ChEMBL document CHEMBL3301555, “MMV Malaria Box screening in pLDH viability assay against Plasmodium falciparum gametocytes”

Key:
Plasmodium falciparum [1] = experiment: (§1) MMV: Measure of pLDH activity as indication of parasite viability. Gametocytogenesis of 3D7 Plasmodium falciparum strain was induced in vitro and asexual parasites were depleted with N-acetylglucosamine. Gametocytes were treated with dihydroartemisinin, epoxomicin, methylene blue, primaquine, puromycin or chloroquine in 96-well plates and the pLDH activity was evaluated using a modified Makler protocol. Mosquito infectivity was measured by the standard membrane feeding assay.; format: functional; set-up: concentration or dose not given beside the values
Plasmodium falciparum [2] = experiment: as §1, with “assay. The IC50 value was extrapolated as the concentration that induced a 50% inhibition of gametocyte viability.” for “assay.”; format: functional, organism-based

SMILES	Growth Inhibition (Plasmodium falciparum [1]) [%]	IC50 (Plasmodium falciparum [2]) [µM]
COc1ccc(-c2cc3c(nn2)-c2ccccc2C3=O)cc1	49.5345	5.01
COc1ccc(C2c3ccc4ccccc4c3Oc3ncn(CCCN(C)C)c(=N)c32)cc1 (configuration not stated)	88.163	0.696
CC(C)(C)CC(C)(C)NCC(O)COc1ccc(Cl)cc1Cl (configuration not stated)	54.9615	5.62
Cc1cccc(-n2ncc3c(O)nc(-n4nc(C)cc4NC(=O)c4cc5ccccc5o4)nc32)c1	60.253	1.62
COC(=O)c1ccc(C2C3=C(O)CC(c4ccc(F)cc4)CC3=Nc3ccccc3N2C(=O)c2ccccc2)cc1 (configuration not stated)	56.5126	6.52
CN(C)CCCNCc1ccc(-c2ccc(F)c(Cl)c2)o1.Cl	63.9166	2.21
Cc1sc2ncnc(Sc3nc4ccccc4[nH]3)c2c1C	79.0368	2.64
COc1ccc(C(=O)NC(c2ccc(Cl)cc2Cl)c2cc(Cl)c3cccnc3c2O)cc1 (configuration not stated)	50.4754	3.81
CCOc1ccc(CN2CCN(CC(O)COc3ccc(OCC(O)CN4CCN(Cc5ccc(OCC)cc5)CC4)cc3)CC2)cc1 (configuration not stated)	89.2205	1.34
Cl.c1ccc2c(NCCCCCCNc3c4c(nc5ccccc35)CCCC4)c3c(nc2c1)CCCC3	77.595	2.39
CCN(CC)CCn1c(=N)n(CC(O)c2ccc(Cl)c(Cl)c2)c2ccccc21.Cl (configuration not stated)	75.2902	2.08
O=C(NCCCN1CCC(N2CCCCC2)CC1)C1=Cc2cc(Br)ccc2OC1	57.2548	1.44
O=C(NC1CCN(Cc2ccccc2)CC1)c1cc(C(=O)NC2CCN(Cc3ccccc3)CC2)cc(C(=O)NC2CCN(Cc3ccccc3)CC2)c1	82.7495	0.288
COc1ccc(C2NCCc3c2[nH]c2ccccc32)cc1CN1CCN(c2ccc(F)cc2)CC1.Cl (configuration not stated)	75.07	3.41
Cl.Clc1cc(Br)ccc1-c1ccc(CNCC2CCNCC2)o1	86.2708	0.407
Cc1ccc2cc3c(N)c4c(C)ccc(C)c4nc3nc2c1	80.372	2.72

SMILES	Growth Inhibition (Plasmodium falciparum [1]) [%]	IC50 (Plasmodium falciparum [2]) [µM]
COc1ccc(C(=O)C(CCC(CNC(C)(C)C)C(=O)c2ccc(OC)cc2)CNC(C)(C)C)cc1 (configuration not stated)	56.45	3.22
CC(C)CCNCC(O)Cn1c2ccccc2c2ccccc21.Cl (configuration not stated)	62.6796	2.83
COc1cc(C(=O)ON=C(N)Cc2cccc3ccccc23)cc(OC)c1OC	60.0732	4.04
Oc1c(C(Nc2ccccn2)c2cccc(Oc3ccccc3)c2)ccc2cccnc12 (configuration not stated)	50.44	3.89
OC(CNC1CCCCC1)Cn1c2ccc(I)cc2c2cc(I)ccc21 (configuration not stated)	78.0014	0.758
Cc1cc(C)c2nc(N3CCC(C(=O)NCCCN4CCC(N5CCCCC5)CC4)CC3)sc2c1	59.2216	1.93
COc1cccc(C(=O)NC(c2ccc(C)cc2)c2cc(Cl)c3cccnc3c2O)c1 (configuration not stated)	50.8652	3.09
CC(C)OCc1cc(CN2CCN(c3cccc(Cl)c3)CC2)c(O)c2ncccc12	56.857	3.28
CCCOCc1cc(CN2CCN(c3cccc(Cl)c3)CC2)c(O)c2ncccc12	80.5	3.8
Oc1c(CN2CCN(c3ccccc3F)CC2)cc(Br)c2cccnc12	75.8386	1.9
CCCc1c(C)nc2ccc(Br)cc2c1O	51.0245	8.9
CC1=C(CC(=O)c2cccc([N+](=O)[O-])c2)C(=O)c2ccccc2C1=O	70.075	0.902
CC1CC2=C(CC1CNCCCN(C)C)C(C)(C)CCC2 (configuration not stated)	91.9455	0.576
CN(C)c1ccc(N=Cc2ccc(N3CCOCC3)cc2)cc1	78.9978	4.16
CN(C)c1ccc(C(O)(c2ccc(N(C)C)cc2)c2ccc(N(C)C)cc2)cc1 [METHYLROSANILINE]	76.3425	0.158
